In US9676734B2, “Compounds and methods” (VIRONOVA INFLUENZA AB, priority 2012, dated 2017):

Tested on: Caco2
Experiment: Caco2 permeability assay
Format: in vitro ADME
Settings: relative to Nucleozin
Procedure: A Caco2 permeability assay was performed using the inventive compound VNFC 0009 as well as Nucleozin.

Question: What does the source list for `Cc1onc(-c2ccccc2)c1C(=S)N1CCN(c2ccc([N+](=O)[O-])cc2Cl)CC1` [VNFC 0009, (4-(2-chloro-4-nitrophenyl)piperazin-1-yl)(5-methyl-3-phenylisoxazol-4-yl)methanethione]?
Answer: Caco2 permeability in the apical to basal direction, higher than that of Nucleozin (apical to basal): about 30%; basal to apical Caco2 permeability, times lower than that of Nucleozin (basal to apical): ~7 times
